The values that follow come from patent US20060063751A1, “Novel fused heterocycles and uses thereof” (AstraZeneca AB, priority 2003, published 2006).

Each structure is given as a SMILES string. pIC50: −log10 of the molar value.

The test has as its target T1, recombinant HsEg5 motor domain (amino acids 1-369-8His) (Homo sapiens, UniProt P52732).
T1 construct: Enzyme was recombinant HsEg5 motor domain (amino acids 1-369-8His); 8His (C)
T1 sequence (P52732 1-369): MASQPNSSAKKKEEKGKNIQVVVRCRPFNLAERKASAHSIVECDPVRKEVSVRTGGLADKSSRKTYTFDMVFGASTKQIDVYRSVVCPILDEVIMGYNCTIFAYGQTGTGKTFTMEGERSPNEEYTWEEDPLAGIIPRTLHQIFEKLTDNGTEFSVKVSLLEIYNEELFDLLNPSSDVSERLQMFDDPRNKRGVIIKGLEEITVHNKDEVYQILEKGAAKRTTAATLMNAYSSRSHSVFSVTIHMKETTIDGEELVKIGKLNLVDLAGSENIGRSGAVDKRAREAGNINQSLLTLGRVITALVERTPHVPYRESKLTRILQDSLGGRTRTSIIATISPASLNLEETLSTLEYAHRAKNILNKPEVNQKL
Put plainly: Malachite Green Assay (Eg5 motor ATPase, phosphate liberated from ATP). Format: biochemical. The procedure:
Enzymatic activity of the Eg5 motor and effects of inhibitors was measured using a malchite green assay, which measures phosphate liberated from ATP, and has been used previously to measure the activity of kinesin motors (Hackney and Jiang, 2001). Enzyme was recombinant HsEg5 motor domain (amino acids 1-369-8His) and was added at a final concentration of 6 nM to 100 μl reactions. Buffer consisted of 25 mM PIPES/KOH, pH 6.8, 2 mM MgCl2, 1 mM EGTA, 1 mM dtt, 0.01% Triton X-100 and 5 μM paclitaxel. Malachite green/ammonium molybdate reagent was prepared as follows: for 800 ml final volume, 0.27 g of Malachite Green (J. T. Baker) was dissolved in 600 ml of H2O in a polypropylene bottle. […]
5 μl of compound diluted in 12% DMSO was added to the wells of 96 well plates. […] The reactions were then quenched by the addition of 150 μl malachite green/ammonium molybdate reagent, and absorbance read at 650 nanometers exactly 5 min after quench using a Spectramax Plus plate reader (Molecular Devices). Data was graphed and IC50s calculated using ExCel Fit (Microsoft).
Enzymatic activity of the Eg5 motor and effects of inhibitors was measured using a malachite green assay, which measures phosphate liberated from ATP, and has been used previously to measure the activity of kinesin motors (Hackney and Jiang, 2001). […] Data was graphed and IC50s calculated using ExCel Fit (Microsoft).

For orientation: pIC50 means the IC50 on a negative log10 scale, so that one unit is a factor of ten. As to `CCC(c1nc2snc(C)c2c(=O)n1Cc1ccccc1)N(CCCN)C(=O)c1cccc(Cl)c1Cl` (single isomer, unassigned; (+)) [Section 3: Example A7, (+) N-(3-Amino-propyl)-N-[1-(5-benzyl-3-methyl-4-oxo-4,5-dihydro-isothiazolo[5,4-d]pyrimidin-6-yl)-propyl]-2,3-dichloro-benzamide hydrogen chloride], the pIC50 is 6.87.
In the case of `CCC(c1nc2c(C)nsc2c(=O)n1Cc1ccccc1)N(CCCN)C(=O)c1ccc(C)cc1` (centres unmarked) [Section 2: Example E1, N-(3-Amino-propyl)-N-[1-(6-benzyl-3-methyl-7-oxo-6,7-dihydro-isothiazolo[4,5-d]pyrimidin-5-yl)-propyl]-4-methyl-benzamide hydrogen chloride] it was 7.05.
